Laboratory results taken from paper PMC5371667, “Targeting Bile Acid Receptors: Discovery of a Potent and Selective Farnesoid X Receptor Agonist as a New Lead in the Pharmacological Approach to Liver Diseases” (Frontiers in Pharmacology, 2017).

How the values were obtained:
GST-fusion FXR-LBD = target: T1, GST-fusion FXR-LBD (Homo sapiens, UniProt Q96RI1); assay: Alpha Screen coactivator (SRC-1 peptide) recruitment assay; assay type: biochemical
T1 construct: 10 nM of purified GST-tagged FXR-LBD protein
T1 sequence (Q96RI1 262-486 limits assumed): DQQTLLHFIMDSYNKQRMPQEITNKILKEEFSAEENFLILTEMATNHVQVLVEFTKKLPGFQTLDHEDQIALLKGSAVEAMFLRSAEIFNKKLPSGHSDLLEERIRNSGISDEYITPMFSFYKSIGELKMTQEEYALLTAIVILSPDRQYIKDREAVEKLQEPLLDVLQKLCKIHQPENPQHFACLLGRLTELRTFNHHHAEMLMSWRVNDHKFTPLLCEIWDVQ
Description: Activation of FXR was determined by Alpha Screen Technology in a Coactivator Recruitment Assay. Anti-GST-coated acceptor beads were used to capture the GST-fusion FXR-LBD, whereas the biotinylated-SRC-1 peptide was captured by the streptavidin donor beads. Upon illumination at 680 nm, chemical energy is transferred from donor to acceptor beads across the complex streptavidin-donor/[…]-LBD/anti-GST-acceptor and a signal is produced. The assay was performed in white, low-volume, 384-well Optiplates (PerkinElmer) using a final volume of 25 μL containing final concentrations of 10 nM of purified GST-tagged FXR-LBD protein, 30 nM biotinylated SRC-1 peptide, 20 μg/mL anti-GST acceptor beads, and 10 μg/mL of streptavidin donor bead (PerkinElmer). The assay buffer contained 50 mM Tris (pH 7.4), 50 mM KCl and 1 mM DTT. The stimulation times with 1 μL of tested compound (dissolved in 50% DMSO/H2O) were fixed to 30 min at room temperature. The concentration of DMSO in each well was maintained at a final concentration of 2%. After the addition of the detection mix (acceptor and donor beads), the plates were incubated in the dark for 3 h at room temperature and then were read in an Envision microplate analyzer (PerkinElmer).

PPARα = target: T2, PPARα (Homo sapiens, UniProt Q07869); assay: PPARα transactivation on HepG2 cells (GAL4 LBD reporter); assay type: cell-based; conditions: 10 μM
T2 construct: expressed in transfected cells; host or cells: HepG2
T2 sequence (Q07869 239-466 limits assumed): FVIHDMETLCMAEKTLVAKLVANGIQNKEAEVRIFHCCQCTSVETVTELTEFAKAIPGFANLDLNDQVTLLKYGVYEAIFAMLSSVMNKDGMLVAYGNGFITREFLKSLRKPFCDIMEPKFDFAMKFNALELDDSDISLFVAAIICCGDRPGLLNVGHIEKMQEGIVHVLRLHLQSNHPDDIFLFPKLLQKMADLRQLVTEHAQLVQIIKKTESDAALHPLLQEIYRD
Description: To evaluate LXRα and LXRβ mediated transactivation, HepG2 cells were transfected with 200 ng of the reporter vector p(UAS)5XTKLuc, 100 ng of a vector containing the ligand binding domain of LXRα or LXRβ cloned upstream of the GAL4-DNA binding domain (i.e., pSG5-LXRαLBD-GAL4DBD or pSG5-LXRβLBD-GAL4DBD) and 100 of pGL4.70 Renilla. At 24 h post-transfection, cells were stimulated 18 h with 10 μM compound 2 and GW3965 (GW, 10 μM) was used as positive control. To investigate the PPARα and PPARγ mediated transactivation, HepG2 cells were transiently transfected with 200 ng reporter vector p(UAS)9XTKLuc, 100 ng of a vector containing the ligand binding domain of PPARα or PPARγ cloned upstream of the GAL4-DNA binding domain (i.e., pSG5- PPARαLBD-GAL4DBD or pSG5- PPARγLBD-GAL4DBD) and 100 of pGL4.70 Renilla. For PPARα transactivation, cells were stimulated with 10 μM compound 2 and gemfibrozil (GEM, 10 μM) was used as positive control. For PPARγ transactivation, cells were stimulated with 10 μM compound 2 and rosiglitazone (ROSI, 100 nM) was used as a positive control. Luciferase activities were assayed and normalized with Renilla activities.

[1] = tested on: FXR target genes SHP, OSTα, BSEP in HepG2 cells; assay: RT-PCR of FXR target genes in HepG2 cells; assay type: cell-based, human; conditions: 1 μM, 18 h, versus 6-ECDCA 1 μM
Description: HepG2 cells were plated at 1 × 10^6 cells/well in a six well plate. After an overnight incubation, cells were starved and then stimulated for 18 h with compound 2 at 1 μM. Total RNA was isolated from HepG2 cells or liver tissues using the TRIzol reagent according to the manufacturer’s specifications (Invitrogen). One microgram of purified RNA was treated with DNase-I and reverse transcribed with Superscript II (Invitrogen). For Real Time PCR, 10 ng template was dissolved in 25 μL containing 200 nmol/L of each primer and 12.5 μL of 2× SYBR FAST Universal ready mix (Invitrogen). All reactions were performed in triplicate, and the thermal cycling conditions were as follows: 2 min at 95°C, followed by 40 cycles of 95°C for 20 s and 60°C for 30 s in StepOnePlus (Applied Biosystems). The relative mRNA expression was calculated accordingly to the Ct method. Primers were designed using the software PRIMER3^1 using published data obtained from the NCBI database. Forward and reverse primer sequences were the following: human GAPDH, […] and […]; human BSEP, […] and […]; human OSTα, […] and […]; human SHP, […] and […]; mouse NTCP, […] and […]; mouse CYP7A1, […] and […]; mouse FGF21, […] and […]; mouse GAPDH, […] and […]; mouse BSEP, […] and […]; mouse OSTα, […] and […]; mouse SHP, […] and […].

Structure (SMILES): CC[C@H]1[C@@H](O)[C@@H]2[C@H](CC[C@]3(C)[C@@H]([C@H](C)CCC(=O)O)CC[C@@H]23)[C@@]2(C)CC[C@H](N=[N+]=[N-])C[C@@H]12 [compound 2, 3β-azido-6α-ethyl-7α-hydroxy-5β-cholan-24-oic acid]
- EC50 (GST-fusion FXR-LBD; recruitment of SRC-1 co-activator peptide, Alfa Screen, Table 1): 610 ± 90 nM
- Efficacy (GST-fusion FXR-LBD; recruitment of SRC-1 co-activator peptide, Alfa Screen, Table 1, 6-ECDCA = 100): 90
- efficacy respect to 6-ECDCA (GST-fusion FXR-LBD; recruitment of SRC-1 peptide): 90%
- PPARα transactivation (PPARα): unable in inducing
- modulation of BSEP mRNA expression [1]: more potent than 6-ECDCA
- modulation of OSTα mRNA expression [1]: more potent than 6-ECDCA
- modulation of SHP mRNA expression [1]: equipotent with 6-ECDCA
